Measurements from patent US20240226228A1, “ANTIMICROBIAL PEPTOID HAVING IMPROVED SELECTIVITY AND ANTIMICROBIAL COMPOSITION COMPRISING SAME” (priority 2021, published 2024).
In brackets after ≈: the same amount, converted by molar mass. Where two headings read alike, the source gives them in different places. Where a SMILES comes first, the peptide text is derived from it. [ ]: non-standard residue; d: D form. Gly(N(CH2)2(3-indolyl)) = O=C(O)CNCCc1c[nH]c2ccccc12; Nspe = C[C@H](NCC(=O)O)c1ccccc1; Nlys = NCCCCNCC(=O)O

Assays:
[1] = test system: E. coli ATCC25922
Method in brief: (§1)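 Cation-adjusted MHB2 cultures (18 h, subcultured 4 h) adjusted to 2×10^5–5×10^5 CFU/mL in medium with 0.02% BSA and 0.001% acetic acid.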

[2] = test system: S. aureus ATCC 25923
Method in brief: as §1

[3] = test system: red blood cells; test: Hemolysis assay; format: cell-based, Sprague-Dawley mouse
Method in brief: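 Peptoid is mixed with 10% (v/v) PBS-washed erythrocytes (male Sprague-Dawley […], 13 weeks) and held 1 h at 37 °C. Hemolysis is calculated from 540 nm absorbance of the supernatant, with PBS as 0% and Triton X-100 as 100%.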

[4] = Table 18, TFA salt vs counter ion-substituted (HCl, AcOH) peptoids
[5] = Tables 11-13, 24 hours at 37° C., maximum concentration 25 μM

SMILES: C[C@@H](c1ccccc1)N(CC(N)=O)C(=O)CN(C(=O)CN(CCCCN)C(=O)CN(C(=O)CN(C(=O)CN(CCCCN)C(=O)CN(C(=O)CN(C(=O)CN(CCCCN)C(=O)CN(CCc1c[nH]c2ccccc12)C(=O)CN(CCc1c[nH]c2ccccc12)C(=O)CNCCCCN)[C@@H](C)c1ccccc1)[C@@H](C)c1ccccc1)[C@@H](C)c1ccccc1)[C@@H](C)c1ccccc1)[C@@H](C)c1ccccc1 [Peptoid 14-2]
- MIC E. coli ATCC25922 [1, 4]: 3.1 µM
- MIC S. aureus ATCC 25923 [2, 4]: 1.6 µM
- HC10 [3]: 14.9 µM
- HC50 [3]: 51.8 µM
- Hmax (100 μM) [3]: 100.7 ± 17.2%

SMILES: C[C@@H](c1ccccc1)N(CC(N)=O)C(=O)CN(C(=O)CN(CCCCN)C(=O)CN(C(=O)CN(CCc1c[nH]c2ccccc12)C(=O)CN(CCCCN)C(=O)CN(CCc1c[nH]c2ccccc12)C(=O)CN(C(=O)CN(CCCCN)C(=O)CN(C(=O)CN(C(=O)CNCCCCN)[C@@H](C)c1ccccc1)[C@@H](C)c1ccccc1)[C@@H](C)c1ccccc1)[C@@H](C)c1ccccc1)[C@@H](C)c1ccccc1 [Peptoid 15-1]
- MIC E. coli ATCC25922 [1, 4]: 6.3 µM
- MIC S. aureus ATCC 25923 [2, 4]: 3.1 µM
- HC10 [3]: 50.4 µM
- HC50 [3]: > 100 µM
- Hmax (100 μM) [3]: 33.4 ± 9.7%

SMILES: C[C@@H](c1ccccc1)N(CC(N)=O)C(=O)CN(C(=O)CN(CCCCN)C(=O)CN(C(=O)CN(CCc1c[nH]c2ccccc12)C(=O)CN(CCCCN)C(=O)CN(CCc1c[nH]c2ccccc12)C(=O)CN(C(=O)CN(CCCCN)C(=O)CN(C(=O)CN(C(=O)CNCCCCN)[C@@H](C)c1ccccc1)[C@@H](C)c1ccccc1)[C@@H](C)c1ccccc1)[C@@H](C)c1ccccc1)[C@@H](C)c1ccccc1 [Peptoid 15-2]
- MIC E. coli ATCC25922 [1, 4]: 6.3 µM
- MIC S. aureus ATCC 25923 [2, 4]: 3.1 µM
- HC10 [3]: 39.2 µM
- HC50 [3]: > 100 µM
- Hmax (100 μM) [3]: 34.1 ± 1.1%

SMILES: C[C@@H](c1ccccc1)N(CC(=O)N(CCc1c[nH]c2ccccc12)CC(=O)N(CCCCN)CC(=O)N(CC(=O)N(CC(=O)N(CCCCN)CC(=O)N(CC(=O)N(CC(=O)N(CCCCN)CC(=O)N(CC(=O)N(CCc1c[nH]c2ccccc12)CC(N)=O)[C@@H](C)c1ccccc1)[C@@H](C)c1ccccc1)[C@@H](C)c1ccccc1)[C@@H](C)c1ccccc1)[C@@H](C)c1ccccc1)C(=O)CNCCCCN [Peptoid 16] (H-[Nlys][Nspe][Gly(N(CH2)2(3-indolyl))][Nlys][Nspe][Nspe][Nlys][Nspe][Nspe][Nlys][Nspe][Gly(N(CH2)2(3-indolyl))]-NH2)
- MIC E. coli ATCC25922 [1, 5]: 6.3 µM (≈ 12 µg/mL)
- MIC S. aureus ATCC 25923 [2, 5]: 1.6 µM (≈ 3.04 µg/mL)
- HC10 [3]: 13.8 µM
- HC50 [3]: 25.0 µM
- Hmax (100 μM) [3]: 100.3 ± 1.7%

SMILES: C[C@@H](c1ccccc1)N(CC(=O)N(CCCCN)CC(=O)N(CC(=O)N(CC(=O)N(CCCCN)CC(=O)N(CC(=O)N(CC(=O)N(CCCCN)CC(=O)N(CC(=O)N(CCc1c[nH]c2ccccc12)CC(N)=O)[C@@H](C)c1ccccc1)[C@@H](C)c1ccccc1)[C@@H](C)c1ccccc1)[C@@H](C)c1ccccc1)[C@@H](C)c1ccccc1)C(=O)CN(CCc1c[nH]c2ccccc12)C(=O)CNCCCCN [Peptoid 17] (H-[Nlys][Gly(N(CH2)2(3-indolyl))][Nspe][Nlys][Nspe][Nspe][Nlys][Nspe][Nspe][Nlys][Nspe][Gly(N(CH2)2(3-indolyl))]-NH2)
- MIC E. coli ATCC25922 [1, 5]: 6.3 µM (≈ 12 µg/mL)
- MIC S. aureus ATCC 25923 [2, 5]: 1.6 µM (≈ 3.04 µg/mL)
- HC10 [3]: 18.0 µM
- HC50 [3]: 39.7 µM
- Hmax (100 μM) [3]: 87.3 ± 6.7%

SMILES: C[C@@H](c1ccccc1)N(CC(=O)N(CCCCN)CC(=O)N(CC(=O)N(CC(=O)N(CCCCN)CC(=O)N(CCc1c[nH]c2ccccc12)CC(=O)N(CCc1c[nH]c2ccccc12)CC(N)=O)[C@@H](C)c1ccccc1)[C@@H](C)c1ccccc1)C(=O)CN(C(=O)CN(CCCCN)C(=O)CN(CCc1c[nH]c2ccccc12)C(=O)CN(CCc1c[nH]c2ccccc12)C(=O)CNCCCCN)[C@@H](C)c1ccccc1 [Peptoid 18] (H-[Nlys][Gly(N(CH2)2(3-indolyl))][Gly(N(CH2)2(3-indolyl))][Nlys][Nspe][Nspe][Nlys][Nspe][Nspe][Nlys][Gly(N(CH2)2(3-indolyl))][Gly(N(CH2)2(3-indolyl))]-NH2)
- MIC E. coli ATCC25922 [1, 5]: 12.5 µM (≈ 24.7 µg/mL)
- MIC S. aureus ATCC 25923 [2, 5]: 3.1 µM (≈ 6.12 µg/mL)
- HC10 [3]: 14.3 µM
- HC50 [3]: 37.8 µM
- Hmax (100 μM) [3]: 103.5 ± 4.3%

SMILES: C[C@@H](c1ccccc1)N(CC(N)=O)C(=O)CN(C(=O)CN(CCCCN)C(=O)CN(CCc1c[nH]c2ccccc12)C(=O)CN(CCc1c[nH]c2ccccc12)C(=O)CN(CCCCN)C(=O)CN(CCc1c[nH]c2ccccc12)C(=O)CN(CCc1c[nH]c2ccccc12)C(=O)CN(CCCCN)C(=O)CN(C(=O)CN(C(=O)CNCCCCN)[C@@H](C)c1ccccc1)[C@@H](C)c1ccccc1)[C@@H](C)c1ccccc1 [Peptoid 20]
- MIC E. coli ATCC25922 [1, 5]: 6.3 µM (≈ 12.4 µg/mL)
- MIC S. aureus ATCC 25923 [2, 5]: 1.6 µM (≈ 3.16 µg/mL)
- HC10 [3]: 8.2 µM
- HC50 [3]: 33.9 µM
- Hmax (100 μM) [3]: 106.7 ± 3.5%

SMILES: C[C@@H](c1ccccc1)N(CC(N)=O)C(=O)CN(C(=O)CN(CCCCN)C(=O)CN(C(=O)CN(C(=O)CN(CCCCN)C(=O)CN(CCc1c[nH]c2ccccc12)C(=O)CN(CCc1c[nH]c2ccccc12)C(=O)CN(CCCCN)C(=O)CN(CCc1c[nH]c2ccccc12)C(=O)CN(CCc1c[nH]c2ccccc12)C(=O)CNCCCCN)[C@@H](C)c1ccccc1)[C@@H](C)c1ccccc1)[C@@H](C)c1ccccc1 [Peptoid 21]
- MIC E. coli ATCC25922 [1, 5]: 6.3 µM (≈ 12.4 µg/mL)
- MIC S. aureus ATCC 25923 [2, 5]: 1.6 µM (≈ 3.16 µg/mL)
- HC10 [3]: 23.2 µM
- HC50 [3]: 64.9 µM
- Hmax (100 μM) [3]: 83.7 ± 2.0%

SMILES: C[C@@H](c1ccccc1)N(CC(=O)N(CCc1c[nH]c2ccccc12)CC(=O)N(CCCCN)CC(=O)N(CC(=O)N(CCc1c[nH]c2ccccc12)CC(=O)N(CCCCN)CC(=O)N(CC(=O)N(CCc1c[nH]c2ccccc12)CC(=O)N(CCCCN)CC(=O)N(CC(=O)N(CCc1c[nH]c2ccccc12)CC(N)=O)[C@@H](C)c1ccccc1)[C@@H](C)c1ccccc1)[C@@H](C)c1ccccc1)C(=O)CNCCCCN [Peptoid 22] (H-[Nlys][Nspe][Gly(N(CH2)2(3-indolyl))][Nlys][Nspe][Gly(N(CH2)2(3-indolyl))][Nlys][Nspe][Gly(N(CH2)2(3-indolyl))][Nlys][Nspe][Gly(N(CH2)2(3-indolyl))]-NH2)
- MIC E. coli ATCC25922 [1, 5]: 12.5 µM (≈ 24.7 µg/mL)
- MIC S. aureus ATCC 25923 [2, 5]: 1.6 µM (≈ 3.16 µg/mL)
- HC10 [3]: 6.9 µM
- HC50 [3]: 19.4 µM
- Hmax (100 μM) [3]: 108.6 ± 1.1%

SMILES: NCCCCNCC(=O)N(CCc1c[nH]c2ccccc12)CC(=O)N(CCc1c[nH]c2ccccc12)CC(=O)N(CCCCN)CC(=O)N(CCc1c[nH]c2ccccc12)CC(=O)N(CCc1c[nH]c2ccccc12)CC(=O)N(CCCCN)CC(=O)N(CCc1c[nH]c2ccccc12)CC(=O)N(CCc1c[nH]c2ccccc12)CC(=O)N(CCCCN)CC(=O)N(CCc1c[nH]c2ccccc12)CC(=O)N(CCc1c[nH]c2ccccc12)CC(N)=O [Peptoid 23] (H-[Nlys][Gly(N(CH2)2(3-indolyl))][Gly(N(CH2)2(3-indolyl))][Nlys][Gly(N(CH2)2(3-indolyl))][Gly(N(CH2)2(3-indolyl))][Nlys][Gly(N(CH2)2(3-indolyl))][Gly(N(CH2)2(3-indolyl))][Nlys][Gly(N(CH2)2(3-indolyl))][Gly(N(CH2)2(3-indolyl))]-NH2)
- MIC E. coli ATCC25922 [1, 5]: 25 µM (≈ 53.3 µg/mL)
- MIC S. aureus ATCC 25923 [2, 5]: 1.6 µM (≈ 3.41 µg/mL)
- HC10 [3]: 17.1 µM
- HC50 [3]: 45.2 µM
- Hmax (100 μM) [3]: 72.2 ± 0.3%

SMILES: C[C@@H](c1ccccc1)N(CC(N)=O)C(=O)CN(CCCCN)C(=O)CN(CCCCN)C(=O)CN(C(=O)CN(C(=O)CN(CCCCN)C(=O)CN(CCc1c[nH]c2ccccc12)C(=O)CN(C(=O)CN(CCCCN)C(=O)CN(C(=O)CN(C(=O)CNCCCCN)[C@@H](C)c1ccccc1)[C@@H](C)c1ccccc1)[C@@H](C)c1ccccc1)[C@@H](C)c1ccccc1)[C@@H](C)c1ccccc1 [Peptoid 24]
- MIC E. coli ATCC25922 [1, 5]: >25 µM
- MIC S. aureus ATCC 25923 [2, 5]: 6.3 µM (≈ 11.5 µg/mL)
- HC10 [3]: >100/>100 μM
- HC50 [3]: >100/>100 μM
- Hmax (100 μM) [3]: 1.5 ± 0.0%

SMILES: C[C@@H](c1ccccc1)N(CC(N)=O)C(=O)CN(C(=O)CN(CCCCN)C(=O)CN(C(=O)CN(CCCCN)C(=O)CN(CCCCN)C(=O)CN(CCc1c[nH]c2ccccc12)C(=O)CN(C(=O)CN(CCCCN)C(=O)CN(C(=O)CN(C(=O)CNCCCCN)[C@@H](C)c1ccccc1)[C@@H](C)c1ccccc1)[C@@H](C)c1ccccc1)[C@@H](C)c1ccccc1)[C@@H](C)c1ccccc1 [Peptoid 25]
- MIC E. coli ATCC25922 [1, 5]: >25 µM
- MIC S. aureus ATCC 25923 [2, 5]: 3.1 µM (≈ 5.66 µg/mL)
- HC10 [3]: >100/>100 μM
- HC50 [3]: >100/>100 μM
- Hmax (100 μM) [3]: 2.7 ± 0.4%

SMILES: C[C@@H](c1ccccc1)N(CC(N)=O)C(=O)CN(C(=O)CN(CCCCN)C(=O)CN(C(=O)CN(C(=O)CN(CCCCN)C(=O)CN(CCc1c[nH]c2ccccc12)C(=O)CN(CCCCN)C(=O)CN(CCCCN)C(=O)CN(C(=O)CN(C(=O)CNCCCCN)[C@@H](C)c1ccccc1)[C@@H](C)c1ccccc1)[C@@H](C)c1ccccc1)[C@@H](C)c1ccccc1)[C@@H](C)c1ccccc1 [Peptoid 26]
- MIC E. coli ATCC25922 [1, 5]: >25 µM
- MIC S. aureus ATCC 25923 [2, 5]: 6.3 µM (≈ 11.5 µg/mL)
- HC10 [3]: >100/>100 μM
- HC50 [3]: >100/>100 μM
- Hmax (100 μM) [3]: 0.7 ± 0.1%

SMILES: C[C@@H](c1ccccc1)N(CC(N)=O)C(=O)CN(C(=O)CN(CCCCN)C(=O)CN(C(=O)CN(C(=O)CN(CCCCN)C(=O)CN(CCc1c[nH]c2ccccc12)C(=O)CN(C(=O)CN(CCCCN)C(=O)CN(C(=O)CN(CCCCN)C(=O)CNCCCCN)[C@@H](C)c1ccccc1)[C@@H](C)c1ccccc1)[C@@H](C)c1ccccc1)[C@@H](C)c1ccccc1)[C@@H](C)c1ccccc1 [Peptoid 27]
- MIC E. coli ATCC25922 [1, 5]: 25 µM (≈ 45.6 µg/mL)
- MIC S. aureus ATCC 25923 [2, 5]: 3.1 µM (≈ 5.66 µg/mL)
- HC10 [3]: >100/>100 μM
- HC50 [3]: >100/>100 μM
- Hmax (100 μM) [3]: 5.9 ± 0.2%
